Source: publication PMC12655172, “Borylated 5-Membered Ring Iminosugars: Synthesis and Biological Evaluation for Glycosidase Inhibition and Anticancer Properties for Application in Boron Neutron Capture Therapy (BNCT)—Part 2” (Pharmaceuticals, 2025)

How the values were obtained:
[1] = tested on: T1, amyloglucosidase (A. niger); test: Glycosidase inhibition (Table 2 panel); assay type: biochemical
T1 construct: purchased Sigma-Aldrich
Excerpt: (§1) The enzymes α-D-glucosidase (yeast), β-D-glucosidases (almond, bovine liver), α-D-galactosidase (coffee beans), β-D-galactosidase (bovine liver), α-D-mannosidase (Jack bean), β-D-mannosidase (snail), α-L-rhamnosidase (P. decumbens), α-L-fucosidase (bovine kidney), trehalase (porcine kidney), β-D-glucuronidases (E. coli, bovine liver), amyloglucosidase (A. niger), para-nitrophenyl glycosides, and various disaccharides were purchased from Sigma-Aldrich Co (St. Louis, MO, USA).
(§2) Brush border membranes were prepared from the rat small intestine according to the method of Kessler et al., and were assayed at pH 6.8 for rat intestinal maltase using maltose. […] The reaction was stopped by heating at 100 °C for 3 min. After centrifugation (600 g; 10 min), the resulting reaction mixture was added to the Glucose CII-test Wako (Wako Pure Chemical Ind., Osaka, Japan). […] Other glycosidase activities were determined using an appropriate para-nitrophenyl glycoside as substrate at the optimum pH of each enzyme. The reaction mixture contained the substrate ([…]) and the appropriate amount of enzyme. The reaction was stopped by the addition of Na2CO3 (400 μM). The released para-nitrophenol was measured spectrometrically at 400 nm. All reactions were run in methanol.

[2] = tested on: T2, β-D-glucuronidase (E. coli); test: Glycosidase inhibition (Table 2 panel); assay type: biochemical
T2 construct: purchased Sigma-Aldrich
Excerpt: as §1, §2

β-D-glucosidase (almond) = test: Glycosidase inhibition (Table 3 panel); assay type: biochemical; conditions: 1 mg/mL aqueous solution; run in water
Procedure: (§3) All enzymes and para-nitrophenyl substrates were purchased from Sigma. Enzymes were assayed at 27 °C in citric acid (0.1 M)/disodium hydrogen phosphate (0.2 M) buffers at the optimum pH for the enzyme. The incubation mixture consisted of […] of 1 mg/mL aqueous solution of extract and […] of the appropriate […] para-nitrophenyl substrate made up in buffer at the optimum pH for the enzyme. The reactions were stopped by addition of […] 0.4 M glycine (pH 10.4) during the exponential phase of the reaction, which had been determined at the beginning using uninhibited assays in which water replaced the inhibitor. Final absorbances were read at 405 nm using a Versamax microplate reader (Molecular Devices, Wokingham, UK). Assays were carried out in triplicate, and the values given are means of the three replicates per assay. All reactions were run in water.

[3] = tested on: β-D-glucuronidase (bovine liver); test: Glycosidase inhibition (Table 3 panel); assay type: biochemical; conditions: 1 mg/mL aqueous solution; run in water
Procedure: as §3

[4] = Sample appearance on sample preparation in water; assay type: physicochemical; conditions: 1 mL of water was added to 1 mg solid
[5] = tested on: A2780 (ovarian carcinoma); test: Cancer screening, MTT growth inhibition; assay type: cell-based; conditions: for inhibition at 25 µM: A2780, 25 µM of drug, read-out: DOSE SCREEN percentage (%) cell growth inhibition A2780 Ovarian
Procedure: (§4) For Table 4, all test agents were prepared as stock solutions ([…]) in dimethyl sulfoxide (DMSO) and stored at −20 °C. Cell lines used in the study included HT29 (colorectal carcinoma), A2780 (ovarian carcinoma), H460 (lung carcinoma), A431 (skin carcinoma), MiaPaCa-2 (pancreatic carcinoma), and SMA560 (spontaneous murine astrocytoma), together with MCF10A (non-tumour derived normal breast cell line). Cell line sources: the HT29, H460, and MiaPaCa-2, together with MCF10A were purchased from ATCC. The A2780 and A431 were purchased from the European Collection of Cell Culture (ECACC). All cell lines were incubated in a humidified atmosphere 5% CO2 at 37 °C. The cancer cell lines were maintained in Dulbecco’s modified Eagle’s medium (DMEM; Sigma, Truganina, Australia) supplemented with foetal bovine serum (10%), sodium pyruvate ([…]), penicillin (100 IUmL^−1), streptomycin (100 µg mL^−1), and L-glutamine ([…]).
(§5) Growth inhibition was determined by plating cells in duplicate in medium (100 µL) at a density of 2500–4000 cells per well in 96-well plates. On day 0 (24 h after plating), when the cells are in logarithmic growth, medium (100 µL) with or without the test agent was added to each well. […] Each data point is the mean ± the standard error of the mean (SEM) calculated from three replicates which were performed on separate occasions and separate cell line passages.

A431 (skin carcinoma) = test: Cancer screening, MTT growth inhibition; assay type: cell-based; conditions: for inhibition at 25 µM: A-431, 25 µM of drug, read-out: DOSE SCREEN percentage (%) cell growth inhibition A431 Skin
Procedure: as §4, §5

H460 (lung carcinoma) = test: Cancer screening, MTT growth inhibition; assay type: cell-based; conditions: for inhibition at 25 µM: NCI-H460, 25 µM of drug, read-out: DOSE SCREEN percentage (%) cell growth inhibition H460 Lung
Procedure: as §4, §5

[6] = tested on: HT29 (colorectal carcinoma); test: Cancer screening, MTT growth inhibition; assay type: cell-based; conditions: for inhibition at 25 µM: HT-29, 25 µM of drug, read-out: DOSE SCREEN percentage (%) cell growth inhibition HT29 Colon
Procedure: as §4, §5

[7] = tested on: MIA-Pa-Ca2 (pancreatic carcinoma); test: Cancer screening, MTT growth inhibition; assay type: cell-based; conditions: for inhibition at 25 µM: MIA PaCa-2, 25 µM of drug, read-out: DOSE SCREEN percentage (%) cell growth inhibition MIA-Pa-Ca2 Pancreatic
Procedure: as §4, §5

α-D-glucosidase (yeast) [8] = molecular target: T3, α-D-glucosidase (yeast) (Saccharomyces cerevisiae, UniProt P53341); test: Glycosidase inhibition (Table 2 panel); assay type: biochemical
T3 construct: purchased Sigma-Aldrich
T3 sequence (P53341 whole entry): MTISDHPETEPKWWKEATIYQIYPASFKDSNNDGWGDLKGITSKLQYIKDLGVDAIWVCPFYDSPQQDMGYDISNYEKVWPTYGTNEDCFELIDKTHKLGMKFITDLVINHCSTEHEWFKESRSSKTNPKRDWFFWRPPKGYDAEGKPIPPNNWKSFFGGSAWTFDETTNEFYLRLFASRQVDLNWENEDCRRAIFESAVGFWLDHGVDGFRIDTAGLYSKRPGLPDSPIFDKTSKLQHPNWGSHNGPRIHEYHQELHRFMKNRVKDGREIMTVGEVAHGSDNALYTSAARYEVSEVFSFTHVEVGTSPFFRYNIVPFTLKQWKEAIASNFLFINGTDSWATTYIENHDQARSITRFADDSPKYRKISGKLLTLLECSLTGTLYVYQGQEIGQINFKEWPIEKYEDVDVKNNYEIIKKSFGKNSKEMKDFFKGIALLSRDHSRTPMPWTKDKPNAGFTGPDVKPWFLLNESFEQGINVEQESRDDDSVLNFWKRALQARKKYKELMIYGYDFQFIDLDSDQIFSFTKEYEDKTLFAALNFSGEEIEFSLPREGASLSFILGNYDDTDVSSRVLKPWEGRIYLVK
Excerpt: as §1, §2

α-D-glucosidase (yeast) [9] = molecular target: T3, α-D-glucosidase (yeast); test: Glycosidase inhibition (Table 3 panel); assay type: biochemical; conditions: 1 mg/mL aqueous solution, run in water
Procedure: All enzymes and para-nitrophenyl substrates were purchased from Sigma. Enzymes were assayed at 27 °C in citric acid (0.1 M)/disodium hydrogen phosphate (0.2 M) buffers at the optimum pH for the enzyme. The incubation mixture consisted of […] of 1 mg/mL aqueous solution of extract and […] of the appropriate 5 μM para-nitrophenyl substrate made up in buffer at the optimum pH for the enzyme. […] Assays were carried out in triplicate, and the values given are means of the three replicates per assay. All reactions were run in water.

[10] = read-out: inhibition % α-D-Glucosidase Yeast

SMILES | inhibition % Amyloglucosidase A. niger ([1]; at 100 μM) | inhibition % β-D-Glucuronidase E. coli ([2]; at 100 μM) | Percentage inhibition β-D-Glucosidase Almond (β-D-glucosidase (almond)) [%] | Percentage inhibition β-D-Glucuronidase Bovine Liver [3] [%] | Sample Appearance [4] | inhibition at 25 µM ([5]; Homo sapiens, 72 h) [%] | inhibition at 25 µM (A431 (skin carcinoma); Homo sapiens, 72 h) [%] | inhibition at 25 µM (H460 (lung carcinoma); Homo sapiens, 72 h) [%] | inhibition at 25 µM ([6]; Homo sapiens, 72 h) [%] | inhibition at 25 µM ([7]; Homo sapiens, 72 h) [%] | Percentage inhibition α-D-Glucosidase Yeast (α-D-glucosidase (yeast) [9]) [%] | also measured
N[C@@H](Cc1ccc(B(O)O)cc1)C(=O)O [BPA, 4-borono-L-phenylalanine, reference compound] | ^cNI ^d(0%) | ^cNI ^d(0.5%) | 3.9 | −0.7 | Some in solution with undissolved sediment | 4 | 4 | 7 | 14 | 3 | – | –
N[C@@H](Cc1ccc(B(O)O)cc1)C(=O)O [^10B-BPA, reference compound] | ^cNI ^d(0%) | ^cNI ^d(2.4%) | 3 | −1 | Some in solution with undissolved sediment | – | – | – | – | – | 3.4 | inhibition % α-D-Glucosidase Yeast (α-D-glucosidase (yeast) [8]; at 100 μM): ^cNI ^d(0%); DOSE SCREEN percentage (%) cell growth inhibition A2780 Ovarian ([5]; 25 µM of drug, 72 h): * 8 ± 4%; DOSE SCREEN percentage (%) cell growth inhibition A431 Skin (A431 (skin carcinoma); 25 µM of drug, 72 h): * 4 ± 4%; DOSE SCREEN percentage (%) cell growth inhibition H460 Lung (H460 (lung carcinoma); 25 µM of drug, 72 h): * 8 ± 5%; DOSE SCREEN percentage (%) cell growth inhibition HT29 Colon ([6]; 25 µM of drug, 72 h): * 15 ± 4%; DOSE SCREEN percentage (%) cell growth inhibition MIA-Pa-Ca2 Pancreatic ([7]; 25 µM of drug, 72 h): * 11 ± 3%
CC1(C)O[C@H]2O[C@H]3[C@@H]([C@H]2O1)N(Cc1cccc(B2OC(C)(C)C(C)(C)O2)c1)C[C@H]3O [meta 2, N-(3-Methylphenylboronic acid pinacol ester)-3,6-dideoxy-3,6-imino-1,2-O-isopropylidene-α-D-gulofuranose] | ^cNI ^d(1.4%) | ^cNI ^d(13.7%) | 13.2 | 9.9 | In solution | 25 ± 2 | 8 ± 6 | 5 ± 2 | 1 ± 10 | 19 ± 8 | 7.9 | inhibition % Amyloglucosidase A. niger ([1]; at 1000 μM): ^aNI ^b(0%); inhibition at 100 µM (α-D-glucosidase (yeast) [8]; [10]): 8.8%; inhibition at 1000 µM (α-D-glucosidase (yeast) [8]; [10]): 0%; inhibition % β-D-Glucuronidase E. coli ([2]; at 1000 μM): ^aNI ^b(5.6%); inhibition at 1000 µg/mL (stock) (α-D-glucosidase (yeast) [9]; read-out: Percentage inhibition α-D-Glucosidase Yeast): 9.3%; GI50 ([5]; Homo sapiens, A2780, 72 h, read-out: DOSE RESPONSE GI50 A2780 Ovarian): > 50 µM; GI50 (A431 (skin carcinoma); Homo sapiens, A-431, 72 h, read-out: DOSE RESPONSE GI50 A431 Skin): > 50 µM; GI50 (H460 (lung carcinoma); Homo sapiens, NCI-H460, 72 h, read-out: DOSE RESPONSE GI50 H460 Lung): > 50 µM; GI50 ([6]; Homo sapiens, HT-29, 72 h, read-out: DOSE RESPONSE GI50 HT29 Colon): > 50 µM; GI50 ([7]; Homo sapiens, MIA PaCa-2, 72 h, read-out: DOSE RESPONSE GI50 MIA-Pa-Ca2 Pancreatic): > 50 µM
